Experimental data: patent publication US20060252807A1, “Novel ortho-terphenyl inhibitors of p38 kinase and methods of treating inflammatory disorders” (Kalypsys, Inc., priority 2005, published 2006)

target: T1, active p38 alpha enzyme (Upstate Biotechnology) (Homo sapiens, UniProt Q16539); test: p38α biochemical assay (ATP turnover, luminescent detection, Cambrex PKlight); conditions: p38α biochemical assay, Table 1 Biological Activity
T1 construct: purchased Upstate Biotechnology
Procedure, shortened: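 Luminescent PKlight readout of total ATP consumption follows a 2 h, 30C kinase reaction. Enzyme and MapkapK2 substrate run with 1.4 uM ATP (final) in buffer containing Mg2+, Ca2+, chelators, glycerol, reducing agent and BSA; test compounds added by pintool from DMSO.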

T1 sequence (Q16539 whole entry): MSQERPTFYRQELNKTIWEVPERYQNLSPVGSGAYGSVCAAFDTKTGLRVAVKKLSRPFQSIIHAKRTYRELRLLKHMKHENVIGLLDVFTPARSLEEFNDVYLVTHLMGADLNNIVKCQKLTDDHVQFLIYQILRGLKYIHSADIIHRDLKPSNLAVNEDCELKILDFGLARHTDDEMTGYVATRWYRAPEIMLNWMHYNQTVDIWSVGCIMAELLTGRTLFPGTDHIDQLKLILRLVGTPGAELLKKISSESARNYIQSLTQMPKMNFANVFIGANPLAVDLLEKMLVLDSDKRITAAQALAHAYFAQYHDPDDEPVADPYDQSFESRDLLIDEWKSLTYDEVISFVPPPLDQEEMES

CC(C)NC(=O)c1csc(-c2c(-c3ccc(F)cc3)noc2CNC(=O)c2ccc(F)c(F)c2)n1 [Example 636] and CC(C)NC(=O)c1csc(-c2c(-c3ccc(F)cc3)noc2CNC(=O)c2ccc(Cl)c(Br)c2)n1 [Example 796] cannot be ordered by IC50: greater than 1 µM for the first, greater than 1 µM for the second.

CC1=NN(c2ccc(C(=O)NCc3onc(-c4ccc(F)cc4)c3-c3nc(C(=O)NC(C)C)cs3)cc2)C(=O)C1 [Example 776] and Cc1cccc(C(=O)NCc2onc(-c3ccc(F)cc3)c2-c2nc(C(=O)NC(C)C)cs2)c1O [Example 617] cannot be ordered by IC50: greater than 1 µM for the first, greater than 1 µM for the second.

CC(C)NC(=O)c1csc(-c2oc(CNC(=O)C3CCCN3C(=O)OC(C)(C)C)nc2-c2ccc(F)cc2)n1 (stereo not shown) [Example 295] and Cc1ccc(O)c(C(=O)NCc2nc(-c3ccc(F)cc3)c(-c3nc(C(=O)NC(C)C)cs3)o2)c1 [Example 145] cannot be ordered by IC50: greater than 1 µM for the first, greater than 1 µM for the second.

Cc1ccccc1C(=O)N1CCN(Cc2nc(-c3ccc(F)cc3)c(-c3nc(C(=O)NC(C)C)cs3)o2)CC1 [Example 359] and CC(C)NC(=O)c1csc(-c2oc(CN3CCN(C(=O)c4ccc(F)cc4F)CC3)nc2-c2ccc(F)cc2)n1 [Example 396] cannot be ordered by IC50: greater than 1 µM for the first, greater than 1 µM for the second.

COc1cc(Cl)ccc1C(=O)NCc1nc(-c2ccc(F)cc2)c(-c2nc(C(=O)NC(C)C)cs2)o1 [Example 239] and Cc1cccc(C(=O)NCc2nc(-c3ccc(F)cc3)c(-c3nc(C(=O)NC(C)C)cs3)o2)c1[N+](=O)[O-] [Example 221] cannot be ordered by IC50: greater than 1 µM for the first, no more than 1 µM for the second.

Cc1onc(-c2ccc(F)cc2Cl)c1-c1ccn(C(=O)NC(C)C)n1 [Example 21, 3-|3-(2-Chloro-4-fluoro-phenyl)-5-methyl-isoxazol-4-yl|-pyrazole-1-carboxylic acid isopropylamide] and Cc1cc(Cl)ccc1-c1noc(C)c1-c1ccn(C(=O)NC(C)C)n1 [Example 24, 3-|3-(4-Chloro-2-methyl-phenyl)-5-methyl-isoxazol-4-yl|-pyrazole-1-carboxylic acid isopropylamide] cannot be ordered by IC50: no more than 1 µM for the first, greater than 1 µM for the second.

C#CCNC(=O)c1csc(-c2c(-c3ccc(F)cc3)ncn2C2CCN(Cc3ccccc3)CC2)n1 [Example 89, 2-|3-(1-Benzyl-piperidin-4-yl)-5-(4-fluoro-phenyl)-3H-imidazol-4-yl|-thiazole-4-carboxylic acid prop-2-ynylamide] and CC(C)NC(=O)c1csc(-c2oc(CN3CCN(C(=O)C(Cc4ccccc4)NC(=O)OC(C)(C)C)CC3)nc2-c2ccc(F)cc2)n1 (stereo not shown) [Example 568] cannot be ordered by IC50: greater than 1 µM for the first, greater than 1 µM for the second.

COc1ccccc1CC(=O)NCc1onc(-c2ccc(F)cc2)c1-c1nc(C(=O)NC(C)C)cs1 [Example 657] and CC(C)NC(=O)c1csc(-c2c(-c3ccc(F)cc3)noc2CNC(=O)Cc2c(F)cccc2F)n1 [Example 668] cannot be ordered by IC50: greater than 1 µM for the first, greater than 1 µM for the second.

CC(C)NC(=O)c1csc(-c2c(-c3ccc(F)cc3)noc2CNC(=O)c2ccc3cccc(O)c3n2)n1 [Example 721] and CC(C)NC(=O)c1csc(-c2oc(CN3CCN(C(=O)c4cc(O)ccc4O)CC3)nc2-c2ccc(F)cc2)n1 [Example 383] cannot be ordered by IC50: greater than 1 µM for the first, no more than 1 µM for the second.

same assay, conditions: p38α kinase; Table 1 Biological Activity

CC(C)NC(=O)c1csc(-c2c(-c3ccc(F)cc3)n[nH]c2C2CCN(C(=O)c3cc(F)ccc3[N+](=O)[O-])CC2)n1 [Example 950] and CC(C)NC(=O)c1csc(-c2c(-c3ccc(F)cc3)n[nH]c2C2CCN(C(=O)c3cc(F)c(Cl)cc3F)CC2)n1 [Example 973] cannot be ordered by IC50: greater than 1 µM for the first, greater than 1 µM for the second.

COc1ccc(N2CCN(Cc3onc(-c4ccc(F)cc4)c3-c3nc(C(=O)NC(C)C)cs3)CC2)cc1 [Example 1595] and CC(C)NC(=O)c1csc(-c2c(-c3ccc(F)cc3)noc2CN2CCN(c3ccc(C(F)(F)F)cn3)CC2)n1 [Example 1626] cannot be ordered by IC50: greater than 1 µM for the first, greater than 1 µM for the second.

Cc1ccc([C@@H](C)NCc2nc(-c3ccc(F)cc3)c(-c3nc(C(=O)NC(C)C)cs3)o2)cc1 [Example 1116] and CC(C)NC(=O)c1csc(-c2oc(CNc3ccccc3C(C)C)nc2-c2ccc(F)cc2)n1 [Example 1334] cannot be ordered by IC50: greater than 1 µM for the first, greater than 1 µM for the second.

CCCN(C)Cc1nc(-c2ccc(F)cc2)c(-c2nc(C(=O)NC(C)C)cs2)o1 [Example 1189] and CC(C)NC(=O)c1csc(-c2oc(CN(CCC#N)Cc3ccccc3)nc2-c2ccc(F)cc2)n1 [Example 1155] cannot be ordered by IC50: greater than 1 µM for the first, greater than 1 µM for the second.

CC(C)(C)CCNC(=O)c1csc(-c2c(-c3ccc(F)cc3)n[nH]c2C2CCNCC2)n1 [Example 2057] and CC(C)(C)OC(=O)NCCCNC(=O)c1csc(-c2c(-c3ccc(F)cc3)n[nH]c2C2CCNCC2)n1 [Example 2142] cannot be ordered by IC50: greater than 1 µM for the first, greater than 1 µM for the second.

Cc1nc(-c2ccc(F)cc2)c(-c2nc(C(=O)Nc3cccc(F)c3C)cs2)s1 [Example 1977] and CCCNC(=O)c1csc(-c2sc(C)nc2-c2ccc(F)cc2)n1 [Example 1710] cannot be ordered by IC50: greater than 1 µM for the first, greater than 1 µM for the second.

Cc1ccc(C)c(N2CCN(C(=O)c3csc(-c4sc(C)nc4-c4ccc(F)cc4)n3)CC2)c1 [Example 1919] and Cc1nc(-c2ccc(F)cc2)c(-c2nc(C(=O)NCc3ccc(N(C)C)cc3)cs2)s1 [Example 1824] cannot be ordered by IC50: greater than 1 µM for the first, no more than 1 µM for the second.

Cc1nc(-c2ccc(F)cc2)c(-c2nc(C(=O)N(CCC#N)Cc3ccccc3)cs2)s1 [Example 1704] and COc1ccc(C(=O)CNC(=O)c2csc(-c3sc(C)nc3-c3ccc(F)cc3)n2)cc1 [Example 1829] cannot be ordered by IC50: greater than 1 µM for the first, greater than 1 µM for the second.

NS(=O)(=O)c1ccc(CCNC(=O)c2csc(-c3c(-c4ccc(F)cc4)n[nH]c3C3CCNCC3)n2)cc1 [Example 2153] and O=C(NCc1cccc(Cl)c1)c1csc(-c2c(-c3ccc(F)cc3)n[nH]c2C2CCNCC2)n1 [Example 2107] cannot be ordered by IC50: greater than 1 µM for the first, greater than 1 µM for the second.

CC(Cc1ccncc1)NC(=O)c1csc(-c2c(-c3ccc(F)cc3)n[nH]c2C2CCNCC2)n1 (stereo not shown) [Example 2098] and O=C(NC1CCC1)c1csc(-c2c(-c3ccc(F)cc3)n[nH]c2C2CCNCC2)n1 [Example 2038] cannot be ordered by IC50: greater than 1 µM for the first, no more than 1 µM for the second.

CC(=O)N1CCC(n2cnc(-c3ccc(Cl)cc3)c2-c2nc(C(=O)NC(C)C)cs2)CC1 [Example 2163] and CC(C)NC(=O)c1csc(-c2c(-c3ccc(F)cc3)n[nH]c2C2CCN(C(=O)c3ccccc3)CC2)n1 [Example 825] cannot be ordered by IC50: no more than 1 µM for the first, no more than 1 µM for the second.

Cc1cc(C)cc(C(=O)N2CCC(c3[nH]nc(-c4ccc(F)cc4)c3-c3nc(C(=O)NC(C)C)cs3)CC2)c1 [Example 852] and CC1=NN(c2ccc(C(=O)N3CCC(c4[nH]nc(-c5ccc(F)cc5)c4-c4nc(C(=O)NC(C)C)cs4)CC3)cc2)C(=O)C1 [Example 1015] cannot be ordered by IC50: greater than 1 µM for the first, greater than 1 µM for the second.

Cc1cc(C)cc(NCc2onc(-c3ccc(F)cc3)c2-c2nc(C(=O)NC(C)C)cs2)c1 [Example 1646] and Cc1c(Cl)cccc1NCc1onc(-c2ccc(F)cc2)c1-c1nc(C(=O)NC(C)C)cs1 [Example 1667] cannot be ordered by IC50: greater than 1 µM for the first, greater than 1 µM for the second.

CC(C)NC(=O)c1csc(-c2c(-c3ccc(F)cc3)noc2CNc2ccc(F)cc2)n1 [Example 1639] and CCN(CC)CCCC(C)NCc1onc(-c2ccc(F)cc2)c1-c1nc(C(=O)NC(C)C)cs1 (stereo not shown) [Example 1482] cannot be ordered by IC50: greater than 1 µM for the first, greater than 1 µM for the second.

CCN(Cc1onc(-c2ccc(F)cc2)c1-c1nc(C(=O)NC(C)C)cs1)C(Cc1ccccc1)c1ccco1 (stereo not shown) [Example 1617] and CC(C)NC(=O)c1csc(-c2c(-c3ccc(F)cc3)noc2CN2CCN(CCc3ccccc3)CC2)n1 [Example 1591] cannot be ordered by IC50: no more than 1 µM for the first, greater than 1 µM for the second.

Work on CC(C)NC(=O)c1csc(-c2oc(CNCCCN3CCCC3=O)nc2-c2ccc(F)cc2)n1 [Example 1133] yielded an IC50 greater than 1 µM.
